The record followed here is PubChem BioAssay AID1259407 (Chemical Carcinogenesis Research Information System (CCRIS), 2018).

In the data set the test system is CCRIS mutagenicity, Ames/micronucleus/aberration tests. Briefly: CCRIS mutagenicity studies.
[1] abbreviates: Test System: AMES SALMONELLA TYPHIMURIUM, Strain/Indicator: TA98, Metabolic Activation: NONE, Method: STANDARD PLATE.
[2] abbreviates: Test System: AMES SALMONELLA TYPHIMURIUM, Strain/Indicator: TA100, Metabolic Activation: NONE, Method: STANDARD PLATE.
Setting [3] is: Test System: AMES SALMONELLA TYPHIMURIUM, Strain/Indicator: TA100, Metabolic Activation: RAT, LIVER, S-9, AROCLOR 1254, Method: STANDARD PLATE.
The mark [4] stands for this setting: Test System: AMES SALMONELLA TYPHIMURIUM, Strain/Indicator: TA98, Metabolic Activation: NONE, Method: PREINCUBATION
Where [5] appears, read: Test System: AMES SALMONELLA TYPHIMURIUM, Strain/Indicator: TA100, Metabolic Activation: NONE, Method: PREINCUBATION

Calls of active or inactive are those of the source. No rule for the calls is given here.

As to `CC(C)=CCOc1c2occc2cc2ccc(=O)oc12`, the mutagenic call is “active; positive” (Test System: AMES SALMONELLA TYPHIMURIUM, Strain/Indicator: TA92, Metabolic Activation: NONE, Method: SPOT TEST); “active; positive” (Test System: AMES SALMONELLA TYPHIMURIUM, Strain/Indicator: TA92, Metabolic Activation: RAT, LIVER, S-9, AROCLOR 1254, Method: SPOT TEST); “inactive; negative” (Test System: AMES SALMONELLA TYPHIMURIUM, Strain/Indicator: TA94, Metabolic Activation: NONE, Method: SPOT TEST); “inactive; negative” (Test System: AMES SALMONELLA TYPHIMURIUM, Strain/Indicator: TA94, Metabolic Activation: RAT, LIVER, S-9, AROCLOR 1254, Method: SPOT TEST); “active; positive” (Test System: AMES SALMONELLA TYPHIMURIUM, Strain/Indicator: TA97, Metabolic Activation: NONE, Method: SPOT TEST); “active; positive” (Test System: AMES SALMONELLA TYPHIMURIUM, Strain/Indicator: TA97, Metabolic Activation: RAT, LIVER, S-9, AROCLOR 1254, Method: SPOT TEST). Besides, the mutagenic call reads like this: (Test System: AMES SALMONELLA TYPHIMURIUM, Strain/Indicator: TA98, Metabolic Activation: NONE, Method: SPOT TEST) “active; positive”; under setting [1], “inactive; negative”; (Test System: AMES SALMONELLA TYPHIMURIUM, Strain/Indicator: TA98, Metabolic Activation: RAT, LIVER, S-9, AROCLOR 1254, Method: SPOT TEST) “active; positive”; (Test System: AMES SALMONELLA TYPHIMURIUM, Strain/Indicator: TA98, Metabolic Activation: RAT, LIVER, S-9, PHENOBARBITAL, Method: STANDARD PLATE) “inactive; negative”; (Test System: AMES SALMONELLA TYPHIMURIUM, Strain/Indicator: TA100, Metabolic Activation: NONE, Method: SPOT TEST) “active; positive”; under setting [2], “active; positive”. Besides, the mutagenic call by setting is: (Test System: AMES SALMONELLA TYPHIMURIUM, Strain/Indicator: TA100, Metabolic Activation: RAT, LIVER, S-9, AROCLOR 1254, Method: SPOT TEST) “active; positive”; (Test System: AMES SALMONELLA TYPHIMURIUM, Strain/Indicator: TA102, Metabolic Activation: NONE, Method: SPOT TEST) “inactive; negative”; (Test System: AMES SALMONELLA TYPHIMURIUM, Strain/Indicator: TA102, Metabolic Activation: RAT, LIVER, S-9, AROCLOR 1254, Method: SPOT TEST) “inactive; negative”.
`CCN(CC)c1ccc(N=Nc2c(Cl)cc([N+](=O)[O-])cc2[N+](=O)[O-])cc1`: the mutagenic call under setting [1] was “inactive; negative”; the mutagenic call (Test System: AMES SALMONELLA TYPHIMURIUM, Strain/Indicator: TA98, Metabolic Activation: RAT, LIVER, S-9, AROCLOR 1254, Method: STANDARD PLATE) was “active; positive”; the mutagenic call under setting [2] was “active; positive”; the mutagenic call under setting [3] was “active; positive”; the mutagenic call (Test System: AMES SALMONELLA TYPHIMURIUM, Strain/Indicator: TA102, Metabolic Activation: NONE, Method: STANDARD PLATE) was “inactive; negative”; the mutagenic call (Test System: AMES SALMONELLA TYPHIMURIUM, Strain/Indicator: TA102, Metabolic Activation: RAT, LIVER, S-9, AROCLOR 1254, Method: STANDARD PLATE) was “active; positive”. The mutagenic call is, setting by setting: (Test System: AMES SALMONELLA TYPHIMURIUM, Strain/Indicator: TA1535, Metabolic Activation: NONE, Method: STANDARD PLATE) “inactive; negative”; (Test System: AMES SALMONELLA TYPHIMURIUM, Strain/Indicator: TA1535, Metabolic Activation: RAT, LIVER, S-9, AROCLOR 1254, Method: STANDARD PLATE) “active; positive”; (Test System: AMES SALMONELLA TYPHIMURIUM, Strain/Indicator: TA1537, Metabolic Activation: NONE, Method: STANDARD PLATE) “inactive; negative”; (Test System: AMES SALMONELLA TYPHIMURIUM, Strain/Indicator: TA1537, Metabolic Activation: RAT, LIVER, S-9, AROCLOR 1254, Method: STANDARD PLATE) “active; positive”; (Test System: CHINESE HAMSTER V-79, Strain/Indicator: V-79 (HGPRT)/6-THIOGUANINE, Metabolic Activation: NONE) “inactive; negative”; (Test System: CHINESE HAMSTER V-79, Strain/Indicator: V-79 (HGPRT)/6-THIOGUANINE, Metabolic Activation: RAT, LIVER, S-9, AROCLOR 1254) “inactive; negative”. In addition, the mutagenic call (Test System: CHINESE HAMSTER V-79, Strain/Indicator: V-79/8-AZAGUANINE, Metabolic Activation: RAT, LIVER, S-9, AROCLOR 1254) was “inactive; negative”; the mutagenic call (Test System: CHINESE HAMSTER V-79, Strain/Indicator: V-79/8-AZAQUANINE, Metabolic Activation: NONE) was “inactive; negative”; the mutagenic call (Test System: UDS RAT HEPATOCYTES, Strain/Indicator: THY INCORP, Metabolic Activation: NONE, Method: AUTORADIOGRAPHY) is “inactive; negative”.
Regarding `O=C1CCc2ccc3ccc4ccccc4c3c21`, under setting [3], the mutagenic call is “inactive; negative”.
As to `Nc1ccn([C@@H]2O[C@H](CO)[C@@H](O)[C@@H]2O)c(=O)n1`, the mutagenic call reads like this: (Test System: AMES SALMONELLA TYPHIMURIUM, Strain/Indicator: TA98, Metabolic Activation: HAMSTER, LIVER, S-9, AROCLOR 1254 (10%), Method: PREINCUBATION) “inactive; negative”; under setting [4], “inactive; negative”; (Test System: AMES SALMONELLA TYPHIMURIUM, Strain/Indicator: TA98, Metabolic Activation: RAT, LIVER, S-9, AROCLOR 1254 (10%), Method: PREINCUBATION) “inactive; negative”; (Test System: AMES SALMONELLA TYPHIMURIUM, Strain/Indicator: TA100, Metabolic Activation: HAMSTER, LIVER, S-9, AROCLOR 1254 (10%), Method: PREINCUBATION) “inactive; negative”; under setting [5], “inactive; negative”; (Test System: AMES SALMONELLA TYPHIMURIUM, Strain/Indicator: TA100, Metabolic Activation: RAT, LIVER, S-9, AROCLOR 1254 (10%), Method: PREINCUBATION) “inactive; negative”. The mutagenic call is, setting by setting: (Test System: AMES SALMONELLA TYPHIMURIUM, Strain/Indicator: TA1535, Metabolic Activation: HAMSTER, LIVER, S-9, AROCLOR 1254 (10%), Method: PREINCUBATION) “inactive; negative”; (Test System: AMES SALMONELLA TYPHIMURIUM, Strain/Indicator: TA1535, Metabolic Activation: NONE, Method: PREINCUBATION) “inactive; negative”; (Test System: AMES SALMONELLA TYPHIMURIUM, Strain/Indicator: TA1535, Metabolic Activation: RAT, LIVER, S-9, AROCLOR 1254 (10%), Method: PREINCUBATION) “inactive; negative”; (Test System: AMES SALMONELLA TYPHIMURIUM, Strain/Indicator: TA1537, Metabolic Activation: HAMSTER, LIVER, S-9, AROCLOR 1254 (10%), Method: PREINCUBATION) “inactive; negative”; (Test System: AMES SALMONELLA TYPHIMURIUM, Strain/Indicator: TA1537, Metabolic Activation: NONE, Method: PREINCUBATION) “inactive; negative”; (Test System: AMES SALMONELLA TYPHIMURIUM, Strain/Indicator: TA1537, Metabolic Activation: RAT, LIVER, S-9, AROCLOR 1254 (10%), Method: PREINCUBATION) “inactive; negative”.
For `CC(C)(C)OOC1(C)C=C(C(C)(C)C)C(=O)C(C(C)(C)C)=C1`, the mutagenic call runs as follows: under setting [4], “inactive; negative”; (Test System: AMES SALMONELLA TYPHIMURIUM, Strain/Indicator: TA98, Metabolic Activation: RAT, LIVER, S-9, Method: PREINCUBATION) “inactive; negative”; under setting [5], “inactive; negative”; (Test System: AMES SALMONELLA TYPHIMURIUM, Strain/Indicator: TA100, Metabolic Activation: RAT, LIVER, S-9, Method: PREINCUBATION) “inactive; negative”.
Take `CN[C@H]1CCc2cc(OC)c(OC)c(OC)c2-c2ccc(OC)c(=O)cc21`: the mutagenic call reads like this: under setting [1], “inactive; negative”; under setting [2], “inactive; negative”; (Test System: E. COLI, Strain/Indicator: WP2 (HCR), Metabolic Activation: NONE, Method: STANDARD PLATE) “inactive; negative”.
Turning to `O=[N+]([O-])C1c2ccccc2-c2ccccc21`, the mutagenic call (End Point: IN VITRO CHROMOSOMAL ABERRATIONS, Test System: CHINESE HAMSTER LUNG (CHL) CELLS, Metabolic Activation: NONE) is “active; positive”; the mutagenic call (End Point: IN VITRO CHROMOSOMAL ABERRATIONS, Test System: CHINESE HAMSTER LUNG (CHL) CELLS, Metabolic Activation: NONE, Method: FISH) was “active; positive”; the mutagenic call (End Point: IN VITRO CHROMOSOMAL ABERRATIONS, Test System: CHINESE HAMSTER LUNG (CHL) CELLS, Metabolic Activation: RAT, LIVER, S-9, KC-400) is “active; positive”; the mutagenic call (Test System: E. COLI, Strain/Indicator: WP2 UVRA, Metabolic Activation: NONE, Method: FLUCTUATION) was “active; positive”.
